Experimental data published in PubChem BioAssay (NCI).
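Cultured in 96-well plates, cells were exposed to test compound for 48 hours across five concentrations. At the TGI there is no net growth.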

Legend:
Experiment in all cases: NCI anticancer screen, dose series, 48 h
786-0 renal = system: 786-0 renal
A498 renal = system: A498 renal
A549 NSCLC = system: A549 NSCLC
ACHN renal = system: ACHN renal
BT-549 breast = system: BT-549 breast
CAKI-1 renal = system: CAKI-1 renal
COLO 205 colon = system: COLO 205 colon
DU-145 prostate = system: DU-145 prostate
EKVX NSCLC = system: EKVX NSCLC
HCC-2998 colon = system: HCC-2998 colon
HCT-116 colon = system: HCT-116 colon
HCT-15 colon = system: HCT-15 colon
HL-60(TB) leukemia = system: HL-60(TB) leukemia
HOP-62 NSCLC = system: HOP-62 NSCLC
HOP-92 NSCLC = system: HOP-92 NSCLC
HS 578T breast = system: HS 578T breast
HT29 colon = system: HT29 colon
IGROV1 ovarian = system: IGROV1 ovarian
K-562 leukemia = system: K-562 leukemia
LOX IMVI melanoma = system: LOX IMVI melanoma
M14 melanoma = system: M14 melanoma
MALME-3M melanoma = system: MALME-3M melanoma
MCF7 breast = system: MCF7 breast
MDA-MB-231 breast = system: MDA-MB-231 breast
MDA-MB-435 = system: MDA-MB-435
MDA-N = system: MDA-N
MOLT-4 leukemia = system: MOLT-4 leukemia
NCI-H226 lung = system: NCI-H226 lung
NCI-H23 lung = system: NCI-H23 lung
NCI-H460 lung = system: NCI-H460 lung
NCI-H522 lung = system: NCI-H522 lung
NCI/ADR-RES ovarian = system: NCI/ADR-RES ovarian
OVCAR-3 ovarian = system: OVCAR-3 ovarian
OVCAR-4 ovarian = system: OVCAR-4 ovarian
OVCAR-5 ovarian = system: OVCAR-5 ovarian
OVCAR-8 ovarian = system: OVCAR-8 ovarian
PC-3 prostate = system: PC-3 prostate
RPMI-8226 leukemia = system: RPMI-8226 leukemia
RXF 393 renal = system: RXF 393 renal
SF-268 CNS = system: SF-268 CNS
SF-295 CNS = system: SF-295 CNS
SF-539 CNS = system: SF-539 CNS
SK-MEL-2 melanoma = system: SK-MEL-2 melanoma
SK-MEL-28 melanoma = system: SK-MEL-28 melanoma
SK-MEL-5 melanoma = system: SK-MEL-5 melanoma
SK-OV-3 ovarian = system: SK-OV-3 ovarian
SN12C renal = system: SN12C renal
SNB-19 CNS = system: SNB-19 CNS
SNB-75 CNS = system: SNB-75 CNS
SR leukemia = system: SR leukemia
SW-620 colon = system: SW-620 colon
T-47D breast = system: T-47D breast
TK-10 renal = system: TK-10 renal
U251 CNS = system: U251 CNS
UACC-257 melanoma = system: UACC-257 melanoma
UO-31 renal = system: UO-31 renal
CCRF-CEM leukemia = system: CCRF-CEM leukemia
KM12 colon = system: KM12 colon
UACC-62 melanoma = system: UACC-62 melanoma

COc1cc2ccc1OCc1cccc(n1)COc1ccc(cc1OC)C=NCCNCCN=C2
TGI (786-0 renal): > 100 µM | TGI (A498 renal): > 100 µM | TGI (A549 NSCLC): > 100 µM | TGI (ACHN renal): > 100 µM | TGI (BT-549 breast): > 100 µM | TGI (CAKI-1 renal): > 100 µM | TGI (COLO 205 colon): > 100 µM | TGI (DU-145 prostate): > 100 µM | TGI (EKVX NSCLC): > 100 µM | TGI (HCC-2998 colon): > 100 µM | TGI (HCT-116 colon): > 100 µM | TGI (HCT-15 colon): > 100 µM | TGI (HL-60(TB) leukemia): > 100 µM | TGI (HOP-62 NSCLC): > 100 µM | TGI (HOP-92 NSCLC): > 100 µM | TGI (HS 578T breast): > 100 µM | TGI (HT29 colon): > 100 µM | TGI (IGROV1 ovarian): > 100 µM | TGI (K-562 leukemia): > 100 µM | TGI (LOX IMVI melanoma): > 100 µM | TGI (M14 melanoma): > 100 µM | TGI (MALME-3M melanoma): > 100 µM | TGI (MCF7 breast): > 100 µM | TGI (MDA-MB-231 breast): > 100 µM | TGI (MDA-MB-435): > 100 µM | TGI (MDA-N): > 100 µM | TGI (MOLT-4 leukemia): > 100 µM | TGI (NCI-H226 lung): > 100 µM | TGI (NCI-H23 lung): > 100 µM | TGI (NCI-H460 lung): > 100 µM | TGI (NCI-H522 lung): > 100 µM | TGI (NCI/ADR-RES ovarian): > 100 µM | TGI (OVCAR-3 ovarian): > 100 µM | TGI (OVCAR-4 ovarian): > 100 µM | TGI (OVCAR-5 ovarian): > 100 µM | TGI (OVCAR-8 ovarian): > 100 µM | TGI (PC-3 prostate): > 100 µM | TGI (RPMI-8226 leukemia): > 100 µM | TGI (RXF 393 renal): > 100 µM | TGI (SF-268 CNS): > 100 µM | TGI (SF-295 CNS): > 100 µM | TGI (SF-539 CNS): > 100 µM | TGI (SK-MEL-2 melanoma): > 100 µM | TGI (SK-MEL-28 melanoma): > 100 µM | TGI (SK-MEL-5 melanoma): > 100 µM | TGI (SK-OV-3 ovarian): > 100 µM | TGI (SN12C renal): > 100 µM | TGI (SNB-19 CNS): > 100 µM | TGI (SNB-75 CNS): > 100 µM | TGI (SR leukemia): > 100 µM | TGI (SW-620 colon): > 100 µM | TGI (T-47D breast): > 100 µM | TGI (TK-10 renal): > 100 µM | TGI (U251 CNS): > 100 µM | TGI (UACC-257 melanoma): > 100 µM | TGI (UO-31 renal): > 100 µM

Cc1cc2nc(N3C(=O)/C(=C/c4ccc(N(C)C)cc4)N=C3c3ccccc3)sc2cc1C
TGI (786-0 renal): 49.9 µM | TGI (A549 NSCLC): > 100 µM | TGI (ACHN renal): 62.4 µM | TGI (BT-549 breast): > 100 µM | TGI (CAKI-1 renal): > 100 µM | TGI (CCRF-CEM leukemia): 34 µM | TGI (COLO 205 colon): 40.7 µM | TGI (DU-145 prostate): > 100 µM | TGI (EKVX NSCLC): > 100 µM | TGI (HCC-2998 colon): 37.6 µM | TGI (HCT-116 colon): 43 µM | TGI (HCT-15 colon): > 100 µM | TGI (HL-60(TB) leukemia): 46.2 µM | TGI (HOP-62 NSCLC): > 100 µM | TGI (HOP-92 NSCLC): 53 µM | TGI (HS 578T breast): > 100 µM | TGI (HT29 colon): 44.2 µM | TGI (IGROV1 ovarian): > 100 µM | TGI (K-562 leukemia): > 100 µM | TGI (KM12 colon): > 100 µM | TGI (LOX IMVI melanoma): > 100 µM | TGI (M14 melanoma): 73.1 µM | TGI (MCF7 breast): 21.3 µM | TGI (MDA-MB-231 breast): 96 µM | TGI (MDA-MB-435): 51 µM | TGI (MDA-N): 33.8 µM | TGI (MOLT-4 leukemia): 49.8 µM | TGI (NCI-H460 lung): > 100 µM | TGI (NCI/ADR-RES ovarian): > 100 µM | TGI (OVCAR-3 ovarian): > 100 µM | TGI (OVCAR-4 ovarian): > 100 µM | TGI (OVCAR-5 ovarian): 84.2 µM | TGI (OVCAR-8 ovarian): > 100 µM | TGI (PC-3 prostate): 43.5 µM | TGI (RPMI-8226 leukemia): > 100 µM | TGI (RXF 393 renal): 57.9 µM | TGI (SF-268 CNS): > 100 µM | TGI (SF-295 CNS): > 100 µM | TGI (SF-539 CNS): 53.4 µM | TGI (SK-MEL-2 melanoma): 65.3 µM | TGI (SK-MEL-28 melanoma): > 100 µM | TGI (SK-MEL-5 melanoma): 44.4 µM | TGI (SK-OV-3 ovarian): > 100 µM | TGI (SN12C renal): 57.8 µM | TGI (SNB-19 CNS): > 100 µM | TGI (SNB-75 CNS): 56.8 µM | TGI (SR leukemia): 41.3 µM | TGI (SW-620 colon): > 100 µM | TGI (T-47D breast): > 100 µM | TGI (TK-10 renal): > 100 µM | TGI (U251 CNS): > 100 µM | TGI (UACC-257 melanoma): > 100 µM | TGI (UACC-62 melanoma): > 100 µM | TGI (UO-31 renal): 87.4 µM
